Source: PubChem BioAssay (NCI)
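All cell lines were grown in 96-well plates and treated with compound for 48 hours. TGI marks complete inhibition of growth.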

Assays:
Assay in all cases: NCI anticancer screen, dose series, 48 h
[1] = test system: BT-549 breast
[2] = test system: UACC-257 melanoma
[3] = test system: HCC-2998 colon
[4] = test system: OVCAR-8 ovarian
[5] = test system: SK-OV-3 ovarian
[6] = test system: MALME-3M melanoma
[7] = test system: SK-MEL-28 melanoma
[8] = test system: DU-145 prostate
[9] = test system: A549 NSCLC
[10] = test system: UACC-62 melanoma
[11] = test system: SNB-19 CNS
[12] = test system: NCI-H522 lung
[13] = test system: HCT-116 colon
[14] = test system: HT29 colon
[15] = test system: HOP-92 NSCLC
[16] = test system: SF-295 CNS
[17] = test system: U251 CNS
[18] = test system: HS 578T breast
[19] = test system: CCRF-CEM leukemia
[20] = test system: SNB-75 CNS
[21] = test system: OVCAR-3 ovarian
[22] = test system: NCI-H23 lung
[23] = test system: PC-3 prostate
[24] = test system: UO-31 renal
[25] = test system: SW-620 colon
[26] = test system: OVCAR-5 ovarian
[27] = test system: IGROV1 ovarian
[28] = test system: SR leukemia
[29] = test system: M14 melanoma
[30] = test system: ACHN renal
[31] = test system: SN12C renal
[32] = test system: EKVX NSCLC
[33] = test system: SF-268 CNS
[34] = test system: RPMI-8226 leukemia
[35] = test system: NCI-H460 lung
[36] = test system: SF-539 CNS
[37] = test system: RXF 393 renal
[38] = test system: MDA-MB-435
[39] = test system: NCI-H226 lung
[40] = test system: MDA-MB-231 breast
[41] = test system: MCF7 breast
[42] = test system: SK-MEL-5 melanoma
[43] = test system: A498 renal
[44] = test system: T-47D breast
[45] = test system: HOP-62 NSCLC
[46] = test system: LOX IMVI melanoma
[47] = test system: TK-10 renal
[48] = test system: COLO 205 colon
[49] = test system: SK-MEL-2 melanoma
[50] = test system: K-562 leukemia
[51] = test system: HCT-15 colon
[52] = test system: MOLT-4 leukemia
[53] = test system: OVCAR-4 ovarian
[54] = test system: KM12 colon
[55] = test system: CAKI-1 renal
[56] = test system: NCI/ADR-RES ovarian
[57] = test system: MDA-N
[58] = test system: HL-60(TB) leukemia
[59] = test system: 786-0 renal
[60] = test system: SNB-78 CNS
[61] = test system: LXFL 529 NSCLC
[62] = test system: M19-MEL melanoma
[63] = test system: DMS 273 small cell lung
[64] = test system: DMS 114 small cell lung
[65] = test system: KM20L2 colon

Measured: TGI

Cc1nc(-c2ccc(Cl)cc2)cn2c1nc1ccccc12
> 100 µM: [1] | [2] | [3] | [4] | [5] | [6] | [7] | [8] | [9] | [10] | [11] | [12] | [13] | [14] | [15] | [16] | [17] | [18] | [20] | [21] | [22] | [23] | [24] | [25] | [26] | [27] | [28] | [29] | [30] | [31] | [32] | [33] | [34] | [35] | [36] | [37] | [38] | [39] | [40] | [41] | [42] | [43] | [45] | [46] | [47] | [48] | [49] | [50] | [51] | [52] | [53] | [54] | [55] | [56] | [57] | [59]
> 31.6 µM: [19] | [58]
> 21.4 µM: [44]

COc1ccc(/C=C/CO)cc1OC
> 100 µM: [2] | [3] | [4] | [60] | [5] | [61] | [62] | [6] | [7] | [63] | [9] | [10] | [11] | [14] | [15] | [64] | [16] | [17] | [20] | [21] | [22] | [24] | [25] | [26] | [27] | [28] | [65] | [30] | [31] | [32] | [33] | [34] | [36] | [37] | [39] | [42] | [47] | [48] | [49] | [50] | [51] | [52] | [54] | [59]

Cc1cc2nnn(C3CCCO3)c2cc1C (stereo not given)
> 100 µM: [1] | [2] | [3] | [4] | [5] | [6] | [8] | [9] | [10] | [12] | [13] | [14] | [16] | [17] | [18] | [19] | [20] | [21] | [22] | [23] | [26] | [27] | [28] | [29] | [31] | [32] | [33] | [35] | [36] | [37] | [38] | [39] | [40] | [41] | [42] | [43] | [44] | [45] | [47] | [48] | [49] | [50] | [51] | [52] | [55] | [56] | [57] | [58] | [59]

Cc1ccc2c(=O)c3c(O)c4c(cc3n(C)c2c1)OC(C)(C)C=C4
> 10 µM: [1] | [2] | [3] | [4] | [5] | [6] | [7] | [8] | [9] | [10] | [11] | [12] | [13] | [14] | [15] | [16] | [17] | [18] | [19] | [20] | [21] | [22] | [23] | [25] | [26] | [27] | [28] | [29] | [30] | [31] | [32] | [33] | [34] | [35] | [36] | [37] | [38] | [39] | [40] | [41] | [42] | [43] | [44] | [45] | [46] | [47] | [48] | [49] | [50] | [51] | [52] | [53] | [54] | [55] | [56] | [57] | [58] | [59]
